The text below walks through data of article PMC7729925, “Selective hepatitis B and D virus entry inhibitors from the group of pentacyclic lupane-type betulin-derived triterpenoids” (Scientific Reports, 2020).

The test system of data set [1] is rats. The conditions noted are these: single i.p. application of 400 mg/kg; cited from earlier work.
The test system of data set [2] is mice. The note with it: cited from earlier work.
For data set [3], the system named is HDV. Put plainly: in vitro HDV infection of NTCP-HepG2 cells. The note with it: for inhibition of in vitro HDV infection: 5–300 µM (2, 19) or 5–600 µM (4, 17), 6 h with 700 genome equivalents/cell, HDAg immunostaining day 9. The format is cell-based. As to the method:
At day 9 post infection, cells were fixed and an immunostaining against the HDAg was performed, as a marker of HDV infection. The number of infected cells per well was determined by fluorescence microscopy. NTCP-HepG2 cells incubated without inhibitor were used as control (set to 100% infection rate). Infection experiments in the presence of 0.5 µM myr-preS1_2-48 peptide served as control for the 0% infection rate. Scale bars: 100 µm. Data represent means ± SEM of three independent experiments each with triplicate determinations (n = 9). […] Data were combined from two independent experiments, each with quadruplicate determinations (n = 8). (h) Cell viability was determined with an LDH cytotoxicity assay. HepG2 cells treated with HGM w/o test compound were used as positive control and lysed cells as negative control.
For infection experiments NTCP-HepG2 cells were cultured in 96-well plates in Hepatocyte Growth Medium (HGM) consisting of William’s E Medium (Thermo Fisher Scientific) containing 2% bovine serum albumin (BSA, Roth), 2 mM L-Glutamin (Thermo Fisher Scientific), 100 µg/ml gentamicin (Thermo Fisher Scientific), 10 nM dexamethasone (Sigma-Aldrich), 1 mM sodium pyruvate (Thermo Fisher Scientific), 1 × Insulin-Transferrin-Selen (Thermo Fisher Scientific), 2% DMSO (Merck, Darmstadt, Germany), 4% polyethylene glycol (Sigma-Aldrich) and 2 µg/ml doxycycline (Sigma-Aldrich) as reported. Subsequently, cells were washed with DMEM and cultured in HGM supplemented with 2% DMSO, 2% BSA and 2 µg/ml doxycycline. […] HDV stock solved in 20 µl HGM per well was added for infection and cells were incubated for 6 h with final concentration of 700 genome equivalents/cell of HDV particles. HDV production was done in vitro as described before[55],[56]. RT-qPCR was performed to determine genome equivalents. Every three days medium was changed until cells were fixed at 9 days post infection with 3% paraformaldehyde (Sigma-Aldrich) in PBS, for 30 min at room temperature (RT). Cells were permeabilized with 0.2% Triton X 100 (Roth) in PBS for 30 min at RT, and blocked by incubation with 5% bovine serum albumin (Roth) in PBS, for 30 min at RT. Then, cells were immunostained with purified human anti-HDV-positive serum at 37 °C for 1 h (1:400 dilution). Goat anti-human IgG secondary antibody coupled to Alexa Fluor fluorophore (1:400 dilution, Thermo Fisher Scientific) was added for 1 h at 37 °C for detection of Hepatitis Delta antigen (HDAg) as described before.

Data set [4] addresses T1, NTCP (Homo sapiens, UniProt Q14973).
T1 construct: expressed in transfected cells
T1 sequence (Q14973 1-349): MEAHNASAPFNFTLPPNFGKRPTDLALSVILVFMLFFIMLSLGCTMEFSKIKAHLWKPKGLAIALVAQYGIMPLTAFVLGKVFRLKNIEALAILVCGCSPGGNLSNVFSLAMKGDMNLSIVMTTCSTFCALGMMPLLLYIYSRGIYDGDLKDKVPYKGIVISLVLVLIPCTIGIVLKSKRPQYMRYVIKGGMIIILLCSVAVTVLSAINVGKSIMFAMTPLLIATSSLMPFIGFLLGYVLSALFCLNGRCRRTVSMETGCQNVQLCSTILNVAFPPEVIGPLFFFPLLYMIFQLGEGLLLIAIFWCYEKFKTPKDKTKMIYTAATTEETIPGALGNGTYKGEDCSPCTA
Put plainly: [3H]TC transport (bile acid uptake) inhibition in NTCP-HEK293 cells. The format is cell-based. The method, then: (§1) The major goal of the present study was to analyze in parallel the effect of inhibitors on both, bile acid transport via NTCP and myr-preS1_2-48 lipopeptide binding to NTCP in a cell culture system. […] NTCP-HEK293 cells were seeded onto 96-well plates and were incubated with tetracycline in order to induce expression of the human NTCP protein. […] Experiments were performed with solvent alone (set to 100%) and with increasing concentrations of the indicated inhibitors. […] Half maximal inhibitory concentrations (IC50) were calculated by nonlinear regression analysis using the equation log(inhibitor) versus response (GraphPad Prism). […] Data represent means ± SD of quadruplicate determinations of representative experiments. […] In parallel, [^3H]preS1 peptide binding experiments were performed with a tritium-labelled myr-preS1_2-48 lipopeptide -HBV subgenotype D3- that was purchased from Pharmaron (120 Ci/mmol, 1 mCi/ml, Cardiff, UK). […] Experiments were stopped after 10 min by two-times washing with ice-cold PBS. For 0% uptake/binding control, the NTCP-HEK293 cells were not induced with tetracycline (-tet). […] Transport rates and [^3H]preS1 binding were determined in counts per minute (cpm). […] IC50 values were calculated from quadruplicate determinations by GraphPad Prism 6 (GraphPad, San Diego, CA, USA).

Data set [5] deals with T1, NTCP. Put plainly: [3H]preS1 (myr-preS1_2-48 lipopeptide) binding inhibition in NTCP-HEK293 cells. The note with it: for IC50: NTCP-HEK293 cells; for Selectivity index: ratio of mean IC50 [3H]TC transport inhibition / IC50 [3H]preS1 binding inhibition. As to the method: as §1
The subject of data set [6] is HBV. Also noted: method as in earlier work. The note with it: ref 25 (Shimura et al.); read-out: IC50 in vitro HBV infection; cited from earlier work.
Data set [7] addresses T1, NTCP. Also noted: method as in earlier work. The conditions noted are these: ref 25 (Shimura et al.); read-out: IC50 bile acid transport inhibition; cited from earlier work.
The subject of data set [8] is HBV/HDV. Details: method as in PMID 15650187. The conditions noted are these: cited from earlier work.
The mark [9] stands for this setting: IC50 ([3H]preS1 binding), 95% confidence interval, inhibition of 5 nM [3H]preS1 binding, 10 min, 37 °C.
[10] abbreviates: 95% confidence interval, inhibition of 1 µM [3H]TC uptake, NTCP-HEK293 cells, 10 min, 37 °C, read-out: IC50 ([3H]TC uptake).
[11] abbreviates: mean IC50, 5 nM [3H]preS1, standard pH 7.4, read-out: IC50 [3H]preS1 binding inhibition.
The mark [12] stands for this setting: 95% confidence interval, inhibition of 5 nM [3H]preS1 binding, 10 min, 37 °C, read-out: IC50 ([3H]preS1 binding).

Where two headings read alike, the source gives them in different places.

Turning to `C=C(C)[C@@H]1CC[C@]2(C(=O)O)CC[C@]3(C)[C@H](CC[C@@H]4[C@@]5(C)CC[C@H](O)C(C)(C)[C@@H]5CC[C@]43C)[C@@H]12` [Compound 4, Betulinic acid], in data set [1], the “toxic effects in rats” value was “no toxic effects were observed”. Besides, the “toxic effects in mice, repeated dose” value in data set [2] (100 mg/kg i.p. every 3–4 days for a total of six treatments) is recorded as “no toxic effects were observed”. Besides, in data set [2] (500 mg/kg i.p. once), the “toxic effects in mice, single dose” value is “no toxic effects were observed”. The “inhibition of in vitro HDV infection” value in data set [3] is “significantly blocked”.
As for `C=C(C)[C@@H]1CC[C@]2(C)CC[C@]3(C)[C@H](CC[C@@H]4[C@@]5(C)CCC(=O)C(C)(C)[C@@H]5CC[C@]43C)[C@@H]12` [Compound 17, Lupenone], the IC50 in data set [4] (read-out: IC50 ([3H]TC uptake)) fell in the range of 146 to 397 µM; in data set [5] (setting [9]), 13.1 to 35.5 µM; in data set [5] (IC50 [3H]preS1 binding inhibition, mean IC50, 5 nM [3H]preS1, standard pH 7.4), 11 to 50 µM. The “inhibition of in vitro HDV infection” value in data set [3] is recorded as “significantly blocked”.
With `C=C(C)[C@@H]1CC[C@]2(C(=O)N[C@@H](CC(=O)OC)C(=O)OC)CC[C@]3(C)[C@H](CC[C@@H]4[C@@]5(C)CCC(=O)C(C)(C)[C@@H]5CC[C@]43C)[C@@H]12` [Compound 19, Betulonoyl dimethyl-L-aspartate], the figures for the IC50 in data set [4] (setting [10]) and in data set [5] (setting [11]) were 298 to 1430 µM and 11 to 50 µM, respectively. For the same compound, in data set [5], the Selectivity index is on record as 28. Further, the “inhibition of in vitro HDV infection” value in data set [3] is reported as “significantly blocked”.
In the case of `C=C(C)C1CCC2(CO)CCC3(C)C(CCC4C5(C)CCC(OC(=O)C=Cc6ccc(O)c(O)c6)C(C)(C)C5CCC43C)C12` (stereo not drawn) [Compound 27, 3-O-Caffeoylbetulin], the IC50 was 85 to 195 µM in data set [4] (setting [10]), 3.35 to 10 µM in data set [5] (setting [12]) and 6 µM in data set [5] (setting [11]). In addition, in data set [5], the Selectivity index turned out to be 22.
Turning to `CC(=O)OC[C@]12CCC(C(C)C)=C1[C@H]1CC[C@@H]3[C@@]4(C)CC[C@H](OC(C)=O)C(C)(C)[C@@H]4CC[C@@]3(C)[C@]1(C)CC2` [Compound 28, 3,28-Di-O-acetyl-18,19-dehydro-20,29-dihydrobetulin], the “[3H]TC transport inhibition (in words)” value in data set [4] (0.1–1,000 µM, NTCP-HEK293 cells) is “no transport inhibition at all”. The half-maximal inhibitory concentration (IC50) in data set [4] (setting [10]) is over 1000 µM; in data set [4] (mean IC50, […] µM [3H]TC, NTCP-HEK293 cells, standard pH 7.4, read-out: IC50 [3H]TC transport inhibition) it was over 1000 µM; in data set [5] (setting [12]) it was 30 to 133 µM. The Selectivity index in data set [5] is reported as over 16.
As for `CC1(C)CC[C@]23CC[C@]4(C)[C@H](CC[C@@H]5[C@@]6(C)CC[C@H](O)C(C)(C)[C@@H]6CC[C@]54C)[C@H]2[C@H]1OC3` [Compound 29, Allobetulin], the IC50 in data set [4] (read-out: IC50 ([3H]TC uptake)) fell in the range of 212 to 675 µM; in data set [5] (setting [9]), 9.67 to 20.8 µM.
Turning to `CC=CCC(C)C(O)C1C(=O)NC(CC)C(=O)N(C)C(OCCOC)C(=O)N(C)C(CC(C)(C)O)C(=O)NC(C(C)C)C(=O)N(C)C(CC(C)C)C(=O)NC(C)C(=O)NC(C)C(=O)N(C)C(CC(C)C)C(=O)N(C)C(CC(C)C)C(=O)N(C)C(C(C)C)C(=O)N1C` (stereo not drawn) [SCY995], the 50% inhibitory concentration (IC50) is under 8 µM in data set [6] and over 25 µM in data set [7].
As to `CCCCCCCCCCCCCC(=O)NCC(=O)N[C@@H](CCC(N)=O)C(=O)N[C@@H](CC(N)=O)C(=O)N[C@@H](CC(C)C)C(=O)N[C@@H](CO)C(=O)N[C@H](C(=O)N[C@@H](CO)C(=O)N[C@@H](CC(N)=O)C(=O)N1CCC[C@H]1C(=O)N[C@@H](CC(C)C)C(=O)NCC(=O)N[C@@H](Cc1ccccc1)C(=O)N[C@@H](Cc1ccccc1)C(=O)N1CCC[C@H]1C(=O)N[C@@H](CC(=O)O)C(=O)N[C@@H](Cc1c[nH]cn1)C(=O)N[C@@H](CCC(N)=O)C(=O)N[C@@H](CC(C)C)C(=O)N[C@@H](CC(=O)O)C(=O)N1CCC[C@H]1C(=O)N[C@@H](C)C(=O)N[C@@H](Cc1ccccc1)C(=O)N[C@@H](CCCNC(=N)N)C(=O)N[C@@H](C)C(=O)N[C@@H](CC(N)=O)C(=O)N[C@H](C(=O)N[C@@H](C)C(=O)N[C@@H](CC(N)=O)C(=O)N1CCC[C@H]1C(=O)N[C@@H](CC(=O)O)C(=O)N[C@@H](Cc1c[nH]c2ccccc12)C(=O)N[C@@H](CC(=O)O)C(=O)N[C@@H](Cc1ccccc1)C(=O)N[C@@H](CC(N)=O)C(=O)N1CCC[C@H]1C(=O)N[C@@H](CC(N)=O)C(=O)N[C@@H](CCCCN)C(=O)N[C@@H](CC(=O)O)C(=O)N[C@H](C(=O)N[C@@H](Cc1c[nH]c2ccccc12)C(=O)N1CCC[C@H]1C(=O)N[C@@H](CC(=O)O)C(=O)N[C@@H](C)C(=O)N[C@@H](CC(N)=O)C(=O)N[C@@H](CCCCN)C(=O)N[C@H](C(=O)NCC(N)=O)C(C)C)[C@@H](C)O)[C@@H](C)O)[C@@H](C)O` [myr-preS1_2-48 lipopeptide, reference compound], in data set [8], the “IC50 of in vitro HBV/HDV infection” value was “low nanomolar range”. Further, the “in vitro HDV infection with peptide control” value in data set [3] (co-incubation with 0.5 µM, set to 0% infection rate) is listed as “completely abolished infection”.
